In brackets after ≈: the same amount, converted by molar mass. Read-outs that look alike come from different tables or passages of the source.
Columns and labels:
gram-negative bacteria = settings: than that of the prior compounds (e.g. norfloxacin, ciprofloxacin); cited from earlier work
gram-positive bacteria = settings: cited from earlier work
C. ramosum = experiment: MIC, anaerobic bacteria; settings: Thomasclavelia ramosa
[1] = tested on: Staphylococcus aureus 209 P; experiment: microbe, parasite or virus in culture
[2] = tested on: Citrobacter freundii IID 976; experiment: MIC, aerobic bacteria; format: cell-based; settings: IID976, Gram -, 10^6 cells/ml
Text: (§1) | Organism (10^6 cells/ml)

[3] = tested on: S. aureus IID 670 (Terajima); experiment: MIC, aerobic bacteria; format: cell-based; settings: Staphylococcus aureus, IID670, Gram +, 10^6 cells/ml
Text: as §1

[4] = tested on: Morganella morganii IID 602; experiment: MIC, aerobic bacteria; format: cell-based; settings: IID602, Gram -, 10^6 cells/ml
Text: as §1

[5] = tested on: Serratia marcescens IID 618; experiment: MIC, aerobic bacteria; format: cell-based; settings: IID618, Gram -, 10^6 cells/ml
Text: as §1

[6] = tested on: Acinetobacter anitratus IID 876; experiment: MIC, aerobic bacteria; format: cell-based; settings: Acinetobacter calcoaceticus, IID876, Gram -, 10^6 cells/ml
Text: as §1

P. mirabilis IID 992 = experiment: MIC, aerobic bacteria; format: cell-based; settings: Proteus mirabilis, IID992, Gram -, 10^6 cells/ml
Text: as §1

E. coli ATCC 10536 = experiment: MIC, aerobic bacteria; format: cell-based; settings: Escherichia coli, ATCC10536, Gram -, 10^6 cells/ml
Text: as §1

S. epidermidis IID 866 = experiment: MIC, aerobic bacteria; format: cell-based; settings: Staphylococcus epidermidis, IID866, Gram +, 10^6 cells/ml
Text: as §1

[7] = tested on: Escherichia coli NIHJ JC-2; experiment: MIC, aerobic bacteria; format: cell-based; settings: NIHJJC2, Gram -, 10^6 cells/ml
Text: as §1

[8] = tested on: Klebsiella pneumoniae KY(GN)6445; experiment: MIC, aerobic bacteria; format: cell-based; settings: Gram -, 10^6 cells/ml
Text: as §1

[9] = tested on: Proteus vulgaris IFO 3167; experiment: MIC, aerobic bacteria; format: cell-based; settings: IFO3167, Gram -, 10^6 cells/ml
Text: as §1

S. aureus Smith = experiment: microbe, parasite or virus in culture; settings: Staphylococcus aureus
[10] = tested on: Bacillus subtilis PCI 219; experiment: microbe, parasite or virus in culture; settings: PCI219
[11] = tested on: Salmonella enteritidis IID 604; experiment: microbe, parasite or virus in culture; settings: Salmonella enterica
B. fragilis 25285 = experiment: MIC, anaerobic bacteria; format: cell-based; settings: Bacteroides fragilis, Gram -, 10^6 cells/ml
Text: as §1

B. vulgatus KYA 29327 = experiment: MIC, anaerobic bacteria; format: cell-based; settings: Phocaeicola vulgatus, KYA29327, Gram -, 10^6 cells/ml
Text: as §1

Pst. micros UPI 5464-1 = experiment: MIC, anaerobic bacteria; format: cell-based; settings: Parvimonas micra, UPI54641, Gram +, 10^6 cells/ml
Text: as §1

B. fragilis 0558 = experiment: MIC, anaerobic bacteria; format: cell-based; settings: Bacteroides fragilis, Gram -, 10^6 cells/ml
Text: as §1

[12] = tested on: Bacteroides fragilis GM 7000; experiment: MIC, anaerobic bacteria; format: cell-based; settings: GM7000, Gram -, 10^6 cells/ml
Text: as §1

[13] = tested on: Veillonella parvula KYA 10790; experiment: MIC, anaerobic bacteria; format: cell-based; settings: KYA10790, Gram -, 10^6 cells/ml
Text: as §1

B. distasonis 8503 = experiment: MIC, anaerobic bacteria; format: cell-based; settings: Parabacteroides distasonis, Gram -, 10^6 cells/ml
Text: as §1

[14] = tested on: Fusobacterium mortiferum 4249; experiment: MIC, anaerobic bacteria; format: cell-based; settings: Gram -, 10^6 cells/ml
Text: as §1

K. pneumoniae 1-220S = experiment: microbe, parasite or virus in culture; settings: Klebsiella pneumoniae, 1220S
[15] = tested on: Eubacterium limosum KYA 8486; experiment: MIC, anaerobic bacteria; settings: KYA8486
[16] = tested on: Yersinia enterocolitica IID 981; experiment: microbe, parasite or virus in culture; settings: IID981
[17] = tested on: Pseudomonas aeruginosa V-1; experiment: MIC, aerobic bacteria; settings: V1
[18] = tested on: Alcaligenes faecalis 0114002; experiment: MIC, aerobic bacteria

Question: Which results are given for `CCNCC1CCN(c2c(F)cc3c(=O)c(C(=O)O)cn(CC)c3c2F)C1` (centres unmarked) [CI-934]?
Answer: activity against gram-negative bacteria (gram-negative bacteria): weaker activity; activity against gram-positive bacteria (gram-positive bacteria; prior drugs, e.g. CI-934): relatively strong activity

Question: Which “activity against gram-positive bacteria” value (gram-positive bacteria; compared with gram-negative bacteria) does the source give for `CCn1cc(C(=O)O)c(=O)c2cc(F)c(N3CCNCC3)cc21` [norfloxacin] here?
Answer: Its value is “fairly less than that against gram-negative bacteria”.

Question: What does the source list for `O=C(O)c1cn(C2CC2)c2cc(N3CCNCC3)c(F)cc2c1=O` [CPFX, ciprofloxacin, reference compound]?
Answer: MIC (C. ramosum): 6.25 µg/mL (≈ 18.9 µM); MIC [1]: 0.2 µg/mL (≈ 0.604 µM); MIC [2]: 0.025 µg/mL (≈ 0.0754 µM); MIC [3]: 0.1 µg/mL (≈ 0.302 µM); MIC [4]: 0.05 µg/mL (≈ 0.151 µM); MIC [5]: 0.05 µg/mL (≈ 0.151 µM); MIC [6]: 0.2 µg/mL (≈ 0.604 µM); MIC (P. mirabilis IID 992): 0.025 µg/mL (≈ 0.0754 µM); MIC (E. coli ATCC 10536): 0.025 µg/mL (≈ 0.0754 µM); MIC (S. epidermidis IID 866): 0.1 µg/mL (≈ 0.302 µM); MIC [7]: ≤ 0.0063 µg/mL; MIC [8]: 0.025 µg/mL (≈ 0.0754 µM); MIC [9]: 0.025 µg/mL (≈ 0.0754 µM); MIC (S. aureus Smith): 0.2 µg/mL (≈ 0.604 µM); MIC [10]: 0.05 µg/mL (≈ 0.151 µM); MIC [11]: 0.025 µg/mL (≈ 0.0754 µM); MIC (B. fragilis 25285): 6.25 µg/mL (≈ 18.9 µM); MIC (B. vulgatus KYA 29327): 25 µg/mL (≈ 75.4 µM); MIC (Pst. micros UPI 5464-1): 0.2 µg/mL (≈ 0.604 µM); MIC (B. fragilis 0558): 3.13 µg/mL (≈ 9.45 µM); MIC [12]: 6.25 µg/mL (≈ 18.9 µM); MIC [13]: 0.2 µg/mL (≈ 0.604 µM); MIC (B. distasonis 8503): 6.25 µg/mL (≈ 18.9 µM); MIC [14]: 3.13 µg/mL (≈ 9.45 µM); MIC (K. pneumoniae 1-220S): 0.05 µg/mL (≈ 0.151 µM); MIC [15]: 3.13 µg/mL (≈ 9.45 µM); MIC [16]: 0.05 µg/mL (≈ 0.151 µM); MIC [17]: 0.05 µg/mL (≈ 0.151 µM); MIC [18]: 0.2 µg/mL (≈ 0.604 µM)
